The test has as its system cats. As to the kind of experiment: Study 1: cat litter preference, pheromone-treated litter versus control litter. It counts as in vivo. Particulars: for percentage preference (% of the cats using the treated litter): litter treated at 10 μg/3-lb (7.3 μg/kg), choice against control litter over 48 hours, 50% = no effect; for Litter Type Use, g, TRT (weights of litter after 2 days): treated litter box, 10 μg/3-lb, SE = 0.023; for Relative Difference, % / Significantly Different: treated versus control litter weight after 2 days; for effect on cats' litter preference: treated versus control litter, 48 hours. As to the method: In Study 1, four different treatments were tested: Androstenone (ANDRO); cat urinary pheromone, 3-mercapto-3-methyl-1-butanol (CAT); rabbit pheromone, 2-methylbut-2-enal (RP); and both the cat urinary pheromone and the rabbit pheromone (CAT+RP). 40 individual cats were used in this study to assess their preference to or aversion from a control litter versus a litter under one of the four treatments. Each treatment was tested with 10 cats. Litter was divided into 3 lb aliquots, and each aliquot was either used as a control or was mixed with a pheromone (or a pheromone combination) to be tested at a level of 10 μg/3-lb (or 7.3 μg/kg).
On Day 0, each cat was placed into an assigned chamber randomly placed with two litter boxes, one control and one treated. Each of the two litter boxes was weighed and the weight was recorded. The camera in the chamber was properly aligned to give a full view of the chamber and started taping on Day 0. On Day 1, 24 hours after the start of taping on Day 0, each of the two litter boxes in the chamber was weighed and the weight was recorded. On Day 2, 48 hours after the start of taping on Day 0, each of the two litter boxes in the chamber was again weighed. Litter can be disposed of after weighing on Day 2, and the camera was then turned off. The weights of the litter boxes over the 48 hours were used to determine whether the litter was used or not, and at which preference level.
The data were expressed as both a percentage preference (% of the cats using the treated litter in each treatment group) and by the weight of the litter (the litter gets heavier as it is soiled). It was expected that if the added pheromone had no effect on litter preference, 50% of the cats would use the treated litter and 50% would use the control litter. […] Further, the weight difference between a control litter or litter under treatment was used to show the relative strength of the effect of a particular treatment on cat's litter use behavior. During the study, some cats (N=3; 2 in CAT+RP and 1 in RP) spilled their litter and their data were unreliable and were not included.

On to `C[C@]12CCC(=O)C[C@@H]1CC[C@@H]1[C@@H]2CC[C@]2(C)C=CC[C@@H]12` [ANDRO, Androstenone], for which the “percentage preference (% of the cats using the treated litter)” value was 50%; the “Litter Type Use, g, TRT (weights of litter after 2 days)” value was 0.571 g; the “Relative Difference, %” value was −11%; the “Significantly Different” value is reported as “No”. In addition, the “effect on cats' litter preference” value is reported as “did not provide any attraction”.
As to `CC(C)(S)CCO` [CAT, 3-mercapto-3-methyl-1-butanol], the “percentage preference (% of the cats using the treated litter)” value is listed as 40%; the “Litter Type Use, g, TRT (weights of litter after 2 days)” value is 0.562 g; the “Relative Difference, %” value was −43%; the “Significantly Different” value is “Yes”. In addition, the “effect on cats' litter preference” value is “slight aversion”.
